Experimental data reported in patent publication US20240262783A1, “PHARMACEUTICAL SALT OF FINGOLIMOD, PREPARATION METHOD, PHARMACEUTICAL COMPOSITION AND USE THEREOF” (SHANGHAI BOCIMED PHARMACEUTICAL CO., LTD., priority 2021, published 2024).
Values after ≈ are worked out from the molar mass of the structure shown. Where a name gives a salt, the structure may show the parent alone. Read-outs that look alike come from different tables or passages of the source.

Columns and labels:
[1] = Comparison of solubility (shaken at 37° C. for 24 h, HPLC); format: physicochemical; conditions: for Solubility: 24 h; for solubility at 24 h: 37 °C, thermodynamic from solid
Protocol: The crystalline form 1 of Fingolimod 1-hydroxy-2-naphthoate prepared in Example 14, the crystalline form B of Fingolimod embonate prepared in Example 2, Fingolimod hydrochloride and the Fingolimod free base prepared in Example 12 were added to corresponding media described below. The mixtures were shaken at 37° C. for 24 h and filtered through 0.45 μm aqueous-phase filter membranes. The filtrates were collected for determination of solubility by high-performance liquid chromatography. The corresponding media were acetate buffer solutions at pH 3 and pH 5 and phosphate buffer solutions at pH 7 and pH 9, and the water was ultrapure water.

[2] = Comparison of solid state stability (related substances by HPLC); format: physicochemical; conditions: for Solid state stability, total related substances (in words): stood in high temperature, high humidity, accelerated, illumination and long-term conditions for 10 d
Protocol: Method for Detecting Related Substances by HPLC [table] The crystalline form 1 of Fingolimod 1-hydroxy-2-naphthoate prepared in Example 14, the crystalline form A of Fingolimod embonate prepared in Example 3, and Fingolimod hydrochloride were stood in a high temperature (60° C.)condition, a high humidity (25° C./90% RH) condition, an accelerated (40° C./75% RH) condition, an illumination (1.2× 10^6 Lux·hr) condition, and a long-term (25° C./60% RH) condition, and samples were taken on day 0, day 5, and day 10 for related substance detection by HPLC.

[3] = male, SD, rat, in vivo, po, 0.1 mg/kg
Protocol: (§1) Six male SD rats were divided into two groups. […] In the whole study, the animals in the intramuscular injection group were given ad libitum access to food and water, and those in the oral group were fasted overnight before administration and given access to food at 4 h post-dose.
(§2) Collection of plasma sample: about 150 μL of blood was collected from the jugular vein (whole blood was centrifuged within 30 min to isolate plasma) and placed in a tube containing anticoagulant EDTA-K2, and after treatment, plasma was stored in a freezer at −70° C. before use.
(§3) Pretreatment of plasma sample: to 30 μL of plasma sample, 200 μL of internal standard solution (40 ng/mL Glipizide acetonitrile solution) was added; the mixture was vortexed for 1 min and centrifuged at 5800 rpm at 4° C. for 10 min; 100 μL of supernatant was transferred to a new plate 5 μL of the solution was taken for LC-MS/MS.

in vivo = conditions: male, SD, rat, po, 0.1 mg/kg
Protocol: as §1, §2, §3

[4] = Pharmacokinetic study in male SD rats (plasma Fingolimod by LC-MS/MS)
Protocol: as §1, §2, §3

[5] = Accelerated (40° C./75% RH), Day 5
[6] = Accelerated (40° C./75% RH), Day 10
[7] = Day 0 (baseline, all conditions)
[8] = High humidity (25° C./90% RH), Day 5
[9] = High humidity (25° C./90% RH), Day 10
[10] = High temperature (60° C.), Day 5
[11] = High temperature (60° C.), Day 10
[12] = Illumination (1.2× 10^6 Lux·hr), Day 5
[13] = Illumination (1.2× 10^6 Lux·hr), Day 10
[14] = Long-term (25° C./60% RH), Day 5
[15] = Long-term (25° C./60% RH), Day 10
[16] = injection group, intramuscular 3 mg/kg

Molecule | Solubility ([1]; Water (ultrapure), 37° C.) | Solubility ([1]; pH 3 acetate buffer, 37° C.) | Solubility ([1]; pH 5 acetate buffer, 37° C.) | Changes in total related substances relative to day 0 [2, 5] | Changes in total related substances relative to day 0 [2, 6] | Changes in total related substances relative to day 0 [2, 7] | Changes in total related substances relative to day 0 [2, 8] | Changes in total related substances relative to day 0 [2, 9] | Changes in total related substances relative to day 0 [2, 10] | Changes in total related substances relative to day 0 [2, 11] | Changes in total related substances relative to day 0 [2, 12] | Changes in total related substances relative to day 0 [2, 13] | Changes in total related substances relative to day 0 [2, 14] | Changes in total related substances relative to day 0 [2, 15] | Solid state stability, total related substances (in words) [2] | Solubility ([1]; pH 7 phosphate buffer, 37° C.) | Solubility ([1]; pH 9 phosphate buffer, 37° C.) | also measured
CCCCCCCCc1ccc(CCC(N)(CO)CO)cc1 [Fingolimod free base, reference compound] | about 23 μg/mL | 5561.36 µg/mL (≈ 18.1 mM) | 473.53 µg/mL (≈ 1.54 mM) | – | – | – | – | – | – | – | – | – | – | – | – | – | – | –
CCCCCCCCc1ccc(CCC(N)(CO)CO)cc1 [Fingolimod hydrochloride, reference compound] | – | – | – | −0.07% | 0.01% | 0% | −0.07% | −0.07% | 0.03% | 0.02% | −0.04% | −0.03% | 0.04% | −0.12% | – | – | – | Behaviour of the salt in the media (in words) [1]: dissociated into the Fingolimod free base; solubility at 24 h ([1]; pH 3, aqueous buffer): > 33.5 mg/mL; solubility at 24 h ([1]; pH 5, aqueous buffer): > 15.6 mg/mL; solubility at 24 h ([1]; pH 7, aqueous buffer): < 0.00015 mg/mL; solubility at 24 h ([1]; pH 9, aqueous buffer): < 0.00015 mg/mL; solubility at 24 h ([1]; water): ~14 mg/mL; Solubility [1]: >13900 µg/mL
CCCCCCCCc1ccc(CCC(N)(CO)CO)cc1 [Fingolimod] | – | – | – | – | – | – | – | – | – | – | – | – | – | – | – | – | – | Time post-dose at which plasma concentration reached the peak value [3]: 12 h; MRT (in vivo): 12 h
Fingolimod 1-hydroxy-2-naphthoate | 5.46 µg/mL | 20.07 µg/mL | 9.17 µg/mL | −0.09% | −0.07% | 0% | −0.04% | −0.07% | −0.05% | −0.16% | −0.05% | 0.02% | −0.17% | −0.15% | remained substantially unchanged | 0.54 µg/mL | 0.58 µg/mL | Solubility in water relative to the solubility of Fingolimod free base ([1]; water): one fourth to one fifth; Solubility in water relative to the solubility of Fingolimod hydrochloride ([1]; water): one thousandth to one twenty-six hundredth; Cmax relative to dose (in words) ([4]; injection group 3 mg/kg versus oral group 0.1 mg/kg): did not increase in proportion to the dose; MRT [4, 16]: 12 days; Time for plasma concentration to reach a relatively steady state [4, 16]: ≤ 1 days; Time plasma concentration was maintained above 0.3 ng/ml [4, 16]: at least 15 days; Time post-dose at which plasma concentration reached the peak value ([4]; injection group, intramuscular 3 mg/kg (Example 18 sample)): 3 h
Fingolimod embonate [listing 1 of 2 here] | – | – | – | 0% | −0.11% | 0% | 0.12% | 0.11% | −0.04% | −0.21% | 0.2% | 0.3% | 0.08% | −0.01% | relatively stable in other conditions than the illumination condition where the impurities were slightly increased | – | – | –
Fingolimod embonate [listing 2 of 2 here] | 0.2 µg/mL | 36.18 µg/mL | 1.75 µg/mL | – | – | – | – | – | – | – | – | – | – | – | – | 21.26 µg/mL | 5.8 µg/mL | –
